Like-named read-outs stand apart in the source and are kept apart here.
Assays:
[1] = test system: piglet hepatic microsomal membranes; assay: DCF activity in AAPH induced free radical release in microsomes (lipid peroxidation); type: biochemical; parameters: DCF activity in AAPH induced free radical release: unit not given here; details: for inhibition of membrane oxidation (reduction in DCF activity): 0-1000 μM, AAPH; for DCF activity in AAPH induced free radical release: one hour at 37° C. then one hour AAPH
Experimental: The protective effect of diltiazem on cell membranes was examined in piglet hepatic microsomal membranes obtained from the livers of 3-week-old female piglets. […] Following incubation the microsomal mixture was centrifuged at 2000 rpm to remove excess AAPH and diltiazem. The extent of reactive oxygen species mediated lipid peroxidation in the microsomal membranes was then measured employing the fluorescence market dichlorofluoresen (DCF, 10μ for 15 min). Image analysis.

[2] = test system: piglet hepatic microsomal membranes; assay: Parallel studies using H2O2 as a free radical generator; type: biochemical
Hepatic liver microsomes = details: for Fluorescence Activity: 1 mM AAPH, n=6
Experimental: Hepatic liver microsomes were obtained from 4 healthy piglets as described previously. Microsomes were stored at −80° C. until required for study. Concentration of microsomes was 1 mg/ml. Diltiazem concentrations were 50 and 500 μM, Thiamine concentrations tested included 10, 50, and 100 μM. Free radical generator AAPH was 1 mM. The study detected hepatic lipid peroxidation products by analyzing the fluorescence activity of the dye DCFH by a plate reader as described in our previous report.
DCF-DA was treated with 2M NaOH and MeOH for 2 hours and after which time it was neutralized with HCl to yield the intracellular form of DCFH as described by the manufacturer. Hepatic microsomes were diluted to 1 mg/ml using Phosphate Buffered Saline (PBS). Microsomes were incubated with various concentrations of diltiazem, thiamine or in combination at 37° C. for 1 hour. Control microsomes were incubated with PBS (no drug treatment). Microsomal mixture was then incubated with 1 mM AAPH for 1 hour to initiate free radical induced lipid peroxidation for 1 hour at 37° C. Following incubation, the microsomal mixture was centrifuged at 2000 rpm using 5000 MWCO ultracentrifuge tubes and the procedure repeated twice with PBS to remove any AAPH and drug. Lipid peroxidized microsomes were incubated with 10 μM DCFH for 15 minutes and fluorescence activity recorded using a fluorescence plate reader.

[3] = test system: microvascular blood flow within the liver; details: in vivo; cited from earlier work
[4] = test system: patients with Hepatitis B; details: cited from earlier work

SMILES | inhibition of membrane oxidation (reduction in DCF activity) [1] | DCF activity in AAPH induced free radical release ([1]; 5 μM) | DCF activity in AAPH induced free radical release ([1]; 50 μM) | DCF activity in AAPH induced free radical release ([1]; 250 μM) | DCF activity in AAPH induced free radical release ([1]; 500 μM) | DCF activity in AAPH induced free radical release ([1]; 1000 μM) | protection against H2O2 as free radical generator [2] | Fluorescence Activity (Hepatic liver microsomes; Diltiazem 50 μM) | Fluorescence Activity (Hepatic liver microsomes; Diltiazem 500 μM) | effect on microvascular blood flow within the liver [3] | Fluorescence Activity (Hepatic liver microsomes; Thiamine 10 μM) | Fluorescence Activity (Hepatic liver microsomes; Thiamine 50 μM) | Fluorescence Activity (Hepatic liver microsomes; Thiamine 100 μM) | effect on fluorescence activity (free radical release), in words (Hepatic liver microsomes; thiamine added to microsomes) | effect on liver function [4]
COc1ccc([C@H]2Sc3ccccc3N(CCN(C)C)C(=O)[C@H]2OC(C)=O)cc1 [L-diltiazem] | not | 52799 | 49949 | 51120 | 53182 | 49937 | – | – | – | – | – | – | – | – | –
COc1ccc([C@@H]2Sc3ccccc3N(CCN(C)C)C(=O)[C@@H]2OC(C)=O)cc1 (relative stereo) [Diltiazem, cis-(+)-3-(acetyloxy)-5-[2-(dimethylamino)ethyl]-2,3-dihydro-2-(4-methoxyphenyl)-1,5-benzothiazepin-4(5H)-one] | dose-dependent inhibition of membrane oxidation | 44501 | 38293 | 35148 | 31498 | 27258 | not protective | 36492 | 32271 | no effect | – | – | – | – | –
Cc1ncc(C[n+]2csc(CCO)c2C)c(N)n1 [Thiamine, thiamine] | – | – | – | – | – | – | – | – | – | – | 31113 | 27265 | 23477 | reduced the fluorescence activity | improve liver function

Reference: patent US7977326B2, “Supportive treatment of liver disease” (priority 2004, dated 2011)
